According to article PMC10788923 (Journal of Medicinal Chemistry, 2023):

Experiments:
[1] = Mouse liver microsome stability; assay type: in vitro ADME; conditions: 0.5 mg protein/mL, 37 °C
[2] = In vivo pharmacokinetic study, oral dosing; set-up: species or system male C57BL/6J mice
[3] = mouse, liver microsomes, read-out: MLM t1/2
[4] = male, C57BL/6J, mouse plasma, PO 10 mg/kg, second number = SD

SMILES	half-life at 1 h, 1 µM [1, 3] [min]	MLM t1/2 ([1]; mouse liver microsomes, 1 μM) [min]	half-life at 1 μM [1, 3] [min]	half-life ([2]; male, C57BL/6J, plasma, mouse, oral dosing 10 mg/kg) [min]	Cmax at 24 h ([2]; male, C57BL/6J, mouse plasma, PO 10 mg/kg) [nM]	Tmax at 24 h [2, 4] [min]	half-life at 24 h [2, 4] [min]	MRT inf at 24 h ([2]; male, C57BL/6J, mouse plasma, PO 10 mg/kg, second number = SD, read-out: MRT0-inf) [min]	oral bioavailability (in words) ([2]; mouse, oral dosing 10 mg/kg)
O=c1cccc(CCOc2ccc(Cl)cc2)[nH]1 [Compound 60, 6-(2-(4-Chlorophenoxy)ethyl)pyridin-2-ol]	11.7								
[O-][n+]1cc(O)cc(CCCc2ccc(Cl)c(C(F)(F)F)c2)c1 [Compound 69, 3-(3-(4-Chloro-3-(trifluoromethyl)phenyl)propyl)-5-hydroxypyridine 1-oxide]		104.7	105	53	310	25	53.3	81	orally bioavailable
[O-][n+]1cccc(CCOc2ccc(Cl)c(C3CC3)c2)c1 [Compound 41, 3-(2-(4-Chloro-3-cyclopropylphenoxy)ethyl)pyridine 1-oxide]	7.2								
